{"source": "paper PMC9979163", "about": "“Discovery and functional characterization of N-(thiazol-2-yl)-benzamide analogs as the first class of selective antagonists of the Zinc-Activated Channel (ZAC)” (Biochemical pharmacology, 2021)", "key": {"hα3β4 nAChR": {"biological_target": "hα3β4 nAChR (Homo sapiens, UniProt P30926+P32297)", "sequence (P32297 32-505)": "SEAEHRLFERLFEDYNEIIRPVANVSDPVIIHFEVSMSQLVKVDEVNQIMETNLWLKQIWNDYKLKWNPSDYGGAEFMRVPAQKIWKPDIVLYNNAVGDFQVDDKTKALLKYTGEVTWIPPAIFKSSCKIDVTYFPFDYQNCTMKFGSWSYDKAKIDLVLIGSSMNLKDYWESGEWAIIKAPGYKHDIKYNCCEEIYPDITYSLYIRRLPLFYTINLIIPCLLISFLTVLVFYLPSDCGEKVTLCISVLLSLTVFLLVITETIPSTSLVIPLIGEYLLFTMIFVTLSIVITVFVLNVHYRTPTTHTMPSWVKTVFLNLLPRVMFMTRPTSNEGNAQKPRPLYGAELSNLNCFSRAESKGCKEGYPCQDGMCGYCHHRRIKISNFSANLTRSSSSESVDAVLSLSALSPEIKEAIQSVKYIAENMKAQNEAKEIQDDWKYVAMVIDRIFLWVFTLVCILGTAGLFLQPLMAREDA", "sequence (P30926 22-498)": "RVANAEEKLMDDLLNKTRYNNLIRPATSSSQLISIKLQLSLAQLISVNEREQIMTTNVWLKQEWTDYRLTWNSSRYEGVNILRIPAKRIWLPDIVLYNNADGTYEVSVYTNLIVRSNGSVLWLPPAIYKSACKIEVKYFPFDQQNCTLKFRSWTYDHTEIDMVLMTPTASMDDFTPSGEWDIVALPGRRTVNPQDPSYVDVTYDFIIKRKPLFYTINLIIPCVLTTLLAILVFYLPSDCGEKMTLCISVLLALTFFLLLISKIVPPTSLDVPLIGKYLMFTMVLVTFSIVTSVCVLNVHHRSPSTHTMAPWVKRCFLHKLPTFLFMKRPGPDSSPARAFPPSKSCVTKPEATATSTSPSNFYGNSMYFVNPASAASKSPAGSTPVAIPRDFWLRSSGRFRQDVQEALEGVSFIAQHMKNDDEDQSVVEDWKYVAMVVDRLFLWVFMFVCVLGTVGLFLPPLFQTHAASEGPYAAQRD", "experiment": "TEVC selectivity, hα3β4 nAChR in oocytes", "type": "cell-based", "conditions": "30 μM, 30 s preapplication, 3 μM (S)-nicotine (EC20–EC40)", "protocol": "(§1) The cDNAs for the various WT and chimeric CLR subunits were linearized and subsequently transcribed and capped mMessage mMachine T7 RNA transcription kit (Ambion, Waltham, MA). […]\n(§2) On the day of experiment, all compound dilutions were prepared in a saline solution [115 mM NaCl, 2.5 mM KCl, 10 mM MOPS (pH 7.5), 1.8 mM CaCl2, 0.1 mM MgCl2] and pH adjusted to 7.5 (if needed). […] Currents were recorded using pCLAMP 10 (Molecular Devices, Sunnyvale, CA). […]\n(§3) In all recordings, the compounds or compound combinations were applied in the bath until the peak current decayed to a steady state (up to 30 sec at the most). […] The functional properties of the modulators at the CLRs were determined by pre-application of the modulator to the perfusate 30 sec and followed by co-application of the modulator and the agonist to the perfusate. […]\n(§4) Data analysis of the results from the TEVC recordings were performed using Clampfit software version 10.5 (Molecular Devices, Crawley, UK) and GraphPad Prism version 7.0c (GraphPad Software, Inc. La Jolla, CA). […] I-V relationships were analyzed by fitting the curves with a third order polynomial model. […]"}, "Solubility (remark)": {"experiment": "Solubility (remark)", "type": "physicochemical"}, "ZAC/hα1-Gly": {"tested_on": "ZAC/hα1-Gly", "experiment": "TEVC, chimeric ZAC/hα1-Gly receptor in oocytes", "type": "cell-based, human", "conditions": "30 μM, EC20–EC40 Zn2+", "protocol": "as §1, §2, §3, §4"}, "ZAC": {"biological_target": "T1, ZAC (Homo sapiens, UniProt Q401N2)", "T1 sequence (Q401N2 26-412)": "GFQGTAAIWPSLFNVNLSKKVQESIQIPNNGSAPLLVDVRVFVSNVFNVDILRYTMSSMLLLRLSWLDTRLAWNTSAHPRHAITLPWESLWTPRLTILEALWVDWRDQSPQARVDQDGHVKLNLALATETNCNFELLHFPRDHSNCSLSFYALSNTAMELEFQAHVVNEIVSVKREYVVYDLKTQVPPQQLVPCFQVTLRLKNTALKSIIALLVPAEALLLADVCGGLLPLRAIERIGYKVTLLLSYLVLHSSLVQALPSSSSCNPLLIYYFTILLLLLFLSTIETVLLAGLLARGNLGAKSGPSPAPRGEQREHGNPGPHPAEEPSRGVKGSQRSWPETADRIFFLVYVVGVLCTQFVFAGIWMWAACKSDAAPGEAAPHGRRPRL", "experiment": "FMP assay at ZAC-HEK293 cells", "type": "cell-based", "protocol": "The screening of the 1,680 compounds in the compound library for antagonist activity at the ZAC-HEK293 cell line was performed in the FMP assay essentially as previously described. The day before the assay, cells were split into poly-D-lysine-coated black 96-well plates with clear bottoms (BD Biosciences, Palo Alto, CA) (6 × 10^4 cells/well). The following day, the culture medium was aspirated and the wells were washed once with 100 μl assay buffer (140 mM NaCl, 4.7 mM KCl, 2.5 mM CaCl2, 1.2 mM MgCl2, 11 mM HEPES, 10 mM D-glucose, pH 7.4), after which 100 μl assay buffer supplemented with FMP dye (0.5 mg/ml) and the various test compounds were added to the wells. The plate was then incubated at 37 °C for 30 min and assayed in a NOVOStar plate reader (BMG Labtechnologies, Offenburg, Germany) measuring emission at 560 nm caused by excitation at 530 nm before and up to 1 min after the addition of 33 μl of agonist solution. In the screening, the 1,680 compounds in the compound library were tested at assay concentrations in the 10–30 μM range, using Cu^2+ as agonist at an assay concentration of 200 μM.\nData from the FMP assay was analysed using KaleidaGraph 3.08 (Synergy Software, Reading, PA). Concentration-response curves for Cu^2+ and concentration-inhibition curves for compound 1 were constructed based on the difference in the relative fluorescence units (RFU) between the maximal fluorescence recorded before and after application of Cu^2+. The data were fitted to sigmoidal curves with variable slopes using nonlinear regression, and EC50 (Cu^2+) and IC50 (compound 1) values were derived from these equations."}}, "data": [{"smiles": "CC(C)(C)c1csc(NC(=O)c2cccc(F)c2)n1", "note": "[5a, N-(4-(tert-butyl)thiazol-2-yl)-3-fluorobenzamide]", "values": [{"measurement": "Agonist, antagonist or PAM activity", "setting": "hα3β4 nAChR", "result": "did not display significant activity"}, {"measurement": "Solubility (in words)", "setting": "Solubility (remark)", "result": "limited solubility"}, {"measurement": "Modulation of Zn2+-induced response", "setting": "ZAC/hα1-Gly", "result": "negligible effect"}]}, {"smiles": "COC(=O)c1sc(NC(=O)c2cc(Br)ccc2Cl)nc1C", "note": "[compound 1, 2-(5-bromo-2-chlorobenzamido)-4-methylthiazole-5-methyl ester]", "values": [{"measurement": "IC50", "setting": "ZAC", "result": 6.1, "unit": "µM"}]}]}
